Test results taken from patent publication EP0048954A2, “Beta-lactam compounds, process for the preparation thereof and intermediate products for the preparation thereof” (SAGAMI CHEMICAL RESEARCH CENTER, priority 1980, dated 1982).
≈ marks a conversion by molar mass, not a printed value. Structures can show the parent of a compound that is named as a salt. Where two headings read alike, the source gives them in different places.

Tests used:
Assay in all cases: Antibacterial activity, minimum inhibition concentration (method of The Chemotherapy Association, Japan)
Format in all cases: cell-based
Proteus rettgeri NIH-96 = conditions: Providencia rettgeri
Excerpt: (§1) The abbreviations A to P will be used in the following Tables 2 to 8.
(§2) Test results are shown in terms of the minimum inhibition concentration (µg/mℓ.) in the following Tables 2 to 8.

Proteus vulgaris OX-19 = conditions: Proteus vulgaris
Excerpt: as §1, §2

[1] = test system: Bacillus subtilis ATCC 6633; conditions: Bacillus subtilis
Experimental: (§3) Antibacterial activities of the compounds according to this invention, which had been prepared in the preceding Examples, were measured according to the method prescribed by The Committee of Amendment of "The method for measurement of the minimum inhibition concentration", The Chemotherapy Association, Japan (See Chemotherapy, Vol. 22, No. 6, pp. 1126 - 1128 (1974) and Vol. 29, No. 1, pp. 76 - 79 (1981)).
as §1, §2

[2] = test system: Citrobactor freundii NIH-10018 -68; conditions: read-out: minimum inhibition concentration
Experimental: as §3, §1, §2

[3] = test system: Enterobactor cloacae NCTC-9394; conditions: read-out: minimum inhibition concentration
Experimental: as §3, §1, §2

Escherichia coli NIHJC-2 = conditions: Escherichia coli
Experimental: as §3, §1, §2

Escherichia coli NIHJ = conditions: Escherichia coli, read-out: minimum inhibition concentration
Experimental: as §3, §1, §2

Klebsiella pneumoniae = conditions: Klebsiella pneumoniae
Experimental: as §3, §1, §2

[4] = test system: Proteus mirabillis B-30-2 IFO-3849
Experimental: as §3, §1, §2

Proteus morgani Kono = conditions: read-out: minimum inhibition concentration
Experimental: as §3, §1, §2

[5] = test system: Pseudomonas aeruginosa NCTC-10490; conditions: Pseudomonas aeruginosa
Experimental: as §3, §1, §2

[6] = test system: Salmonella typhimurium 3173; conditions: Salmonella enterica, TYPHIMURIUM
Experimental: as §3, §1, §2

Serratia marcescens 1023 = test system: Serratia marcescens 1023
Experimental: as §3, §1, §2

[7] = test system: Serratia marcescens IFO-3736; conditions: Serratia marcescens
Experimental: as §3, §1, §2

[8] = test system: Staphylococcus aureus 6538-P
Experimental: as §3, §1, §2

[9] = NIH96, strain I: Proteus rettgeri NIH-96, read-out: minimum inhibition concentration
[10] = OX19, strain H: Proteus vulgaris OX-19, read-out: minimum inhibition concentration
[11] = ATCC6633, strain B: Bacillus subtilis ATCC 6633, read-out: minimum inhibition concentration
[12] = strain O: Citrobactor freundii NIH-10018 -68
[13] = strain N: Enterobactor cloacae NCTC-9394
[14] = NIHJC2, strain L: Escherichia coli NIHJC-2, read-out: minimum inhibition concentration
[15] = strain K: Escherichia coli NIHJ
[16] = strain C: Klebsiella pneumoniae, read-out: minimum inhibition concentration
[17] = strain G: Proteus mirabillis B-30-2 IFO-3849, read-out: minimum inhibition concentration
[18] = NCTC10490, strain M: Pseudomonas aeruginosa NCTC-10490, read-out: minimum inhibition concentration
[19] = strain D: Salmonella typhimurium 3173, read-out: minimum inhibition concentration
[20] = Serratia marcescens, 1023, strain E: Serratia marcescens 1023, read-out: minimum inhibition concentration
[21] = IFO3736, strain F: Serratia marcescens IFO-3736, read-out: minimum inhibition concentration
[22] = strain A: Staphylococcus aureus 6538-P, read-out: minimum inhibition concentration

Row | Structure (SMILES) | MIC (Proteus rettgeri NIH-96; [9]) [µg/mL] | MIC (Proteus vulgaris OX-19; [10]) [µg/mL] | MIC [1, 11] [µg/mL] | MIC [2, 12] [µg/mL] | MIC [3, 13] [µg/mL] | MIC (Escherichia coli NIHJC-2; [14]) [µg/mL] | MIC (Escherichia coli NIHJ; [15]) [µg/mL] | MIC (Klebsiella pneumoniae; [16]) [µg/mL] | MIC [4, 17] [µg/mL] | MIC (Proteus morgani Kono; strain J: Proteus morgani Kono) [µg/mL] | MIC [5, 18] [µg/mL] | MIC [6, 19] [µg/mL] | MIC (Serratia marcescens 1023; [20]) [µg/mL] | MIC [7, 21] [µg/mL] | MIC [8, 22] [µg/mL] | further results
1 | CC(=O)OCC1=C(C(=O)O)N2C(=O)C(NC(=O)C(=C(Cl)Cl)c3ccc(O)cc3)[C@H]2SC1 (stereo partly drawn) [Compound 2, 7-[2-dichloromethylene-2-(4-hydroxyphenyl)acetamido]-3-acetoxymethyl-3-cephem-4-carboxylic acid] | 0.2 (≈ 0.41 µM) | 6.25 (≈ 12.8 µM) | 3.12 (≈ 6.41 µM) | > 100 | > 100 | > 100 | 0.39 (≈ 0.8 µM) | > 100 | > 100 | > 100 | 6.25 (≈ 12.8 µM) | 100 (≈ 205 µM) | 6.25 (≈ 12.8 µM) | > 100 | 0.39 (≈ 0.8 µM) | –
2 | CC(=O)OCC1=C(C(=O)O)N2C(=O)C(NC(=O)C(=C(Cl)Cl)c3ccc(Cl)cc3)[C@H]2SC1 (stereo partly drawn) [Compound 29, 7-[2-dichloromethylene-2-(4-chlorophenyl)acetamido]-3-acetoxymethyl-3-cephem-4-carboxylic acid] | 3.12 (≈ 6.18 µM) | > 100 | 1.56 (≈ 3.08 µM) | > 100 | > 100 | > 100 | 100 (≈ 198 µM) | > 100 | > 100 | > 100 | > 100 | > 100 | 12.5 (≈ 24.7 µM) | > 100 | > 100 | –
3 | CC1=C(C(=O)O)N2C(=O)C(NC(=O)C(=CCl)c3csc(N)n3)C2SC1 (single isomer, unassigned) [Compound 23, 7-[2-chlromethylene-2-(2-aminothiazol-4-yl)acetamido]-desacetoxycephelosporanic acid sodium salt] | 0.39 | 12.5 | 50 | 100 | 12.5 | 100 | 6.25 | 50 | 25 | > 100 | > 100 | 50 | 100 | > 100 | 3.12 | –
4 | CC(=O)OCC1=C(C(=O)O)N2C(=O)C(NC(=O)C(=C(Cl)Cl)c3ccc(N)cc3)[C@H]2SC1 (stereo partly drawn) [4-(2), 7-[2-dichloromethylene-2-(4-aminophenyl)acetamido]-3-acetoxymethyl-3-cephem-4-carboxylic acid] | 0.2 (≈ 0.411 µM) | 6.25 (≈ 12.9 µM) | 1.56 (≈ 3.21 µM) | > 100 | > 100 | > 100 | 0.39 (≈ 0.802 µM) | > 100 | > 100 | > 100 | 12.5 (≈ 25.7 µM) | 100 (≈ 206 µM) | 3.12 (≈ 6.43 µM) | > 100 | 0.39 (≈ 0.802 µM) | –
5 | CC(=O)OCC1=C(C(=O)O)N2C(=O)C(NC(=O)C(=C(Cl)Cl)c3csc(N)n3)[C@H]2SC1 (stereo partly drawn) [5-(2), 7-[2-dichloromethylene-2-(2-aminothiazol-4-yl)acetamido]-3-acetoxymethyl-3-cephem-4-carboxylic acid] | < 0.025 | 0.2 (≈ 0.405 µM) | 12.5 (≈ 25.3 µM) | 6.25 (≈ 12.7 µM) | 1.56 (≈ 3.16 µM) | 12.5 (≈ 25.3 µM) | 0.1 (≈ 0.203 µM) | 6.25 (≈ 12.7 µM) | 12.5 (≈ 25.3 µM) | 25 (≈ 50.7 µM) | 6.25 (≈ 12.7 µM) | 6.25 (≈ 12.7 µM) | 12.5 (≈ 25.3 µM) | 50 (≈ 101 µM) | 1.56 (≈ 3.16 µM) | –
6 | CC(=O)OCC1=C(C(=O)O)N2C(=O)C(NC(=O)C(=C(Cl)Cl)c3cccc(O)c3)[C@H]2SC1 (stereo partly drawn) [Compound 3, 7-[2-dichloromethylene-2-(3-hydroxyphenyl)acetamido]-3-acetoxymethyl-3-cephem-4-carboxylic acid] | 0.1 (≈ 0.205 µM) | 0.76 (≈ 1.56 µM) | 3.12 (≈ 6.41 µM) | 25 (≈ 51.3 µM) | 12.5 (≈ 25.7 µM) | 50 (≈ 103 µM) | 0.2 (≈ 0.41 µM) | 50 (≈ 103 µM) | 50 (≈ 103 µM) | 100 (≈ 205 µM) | 6.25 (≈ 12.8 µM) | 12.5 (≈ 25.7 µM) | 0.25 (≈ 0.513 µM) | 50 (≈ 103 µM) | 0.39 (≈ 0.8 µM) | –
7 | Cn1nnnc1SCC1=C(C(=O)O)N2C(=O)C(NC(=O)C(=CCl)c3cccs3)C2SC1 (stereo not drawn) [Compound 34, 7-[2-chloromethylene-2-(2-thienyl)acetamido]-3-(l-methyl-lH-tetrazol-5-yl)thiomethyl-3-cephem-4-carboxylic acid] | 0.05 (≈ 0.1 µM) | 12.5 (≈ 25.1 µM) | 0.78 (≈ 1.56 µM) | 100 (≈ 200 µM) | 12.5 (≈ 25.1 µM) | 25 (≈ 50.1 µM) | 1.56 (≈ 3.13 µM) | 100 (≈ 200 µM) | 100 (≈ 200 µM) | 100 (≈ 200 µM) | 100 (≈ 200 µM) | 12.5 (≈ 25.1 µM) | 1.56 (≈ 3.13 µM) | 100 (≈ 200 µM) | 25 (≈ 50.1 µM) | –
8 | CC(=O)OCC1=C(C(=O)O)N2C(=O)C(NC(=O)C(=C(Cl)Cl)c3ccc(Cl)c(Cl)c3)[C@H]2SC1 (stereo partly drawn) [Compound 30, 7-[2-dichloromethylene-2-(3,4-dichlorophenyl)acetamido]-3-acetoxymethyl-3-cephem-4-carboxylic acid] | 6.25 (≈ 11.6 µM) | > 100 | 0.78 (≈ 1.44 µM) | > 100 | > 100 | > 100 | 100 (≈ 185 µM) | > 100 | > 100 | > 100 | 100 (≈ 185 µM) | > 100 | 6.25 (≈ 11.6 µM) | > 100 | 100 (≈ 185 µM) | –
9 | Cn1nnnc1SCC1=C(C(=O)O)N2C(=O)C(NC(=O)C(=C(Cl)Cl)c3ccco3)C2SC1 (stereo not drawn) [Compound 1, 7-[2-dichloromethylene-2-(2-furyl)acetamido]-3-(1-methyl-IH-tetrazol-5-yl)thiomethyl-3-cephem-4-carboxylic acid] | < 0.025 | 0.2 (≈ 0.387 µM) | 1.56 (≈ 3.02 µM) | 12.5 (≈ 24.2 µM) | 6.25 (≈ 12.1 µM) | 25 (≈ 48.3 µM) | < 0.025 | 25 (≈ 48.3 µM) | 50 (≈ 96.6 µM) | 50 (≈ 96.6 µM) | 3.12 (≈ 6.04 µM) | 12.5 (≈ 24.2 µM) | 1.56 (≈ 3.02 µM) | 50 (≈ 96.6 µM) | 0.39 (≈ 0.754 µM) | –
10 | CSc1nnc(SCC2=C(C(=O)[O-])N3C(=O)C(NC(=O)C(=CCl)c4csc(N)n4)[C@H]3SC2)s1.[Na+] (stereo partly drawn) [Compound 21, 7-[2-chloromethylene-2-(2-aminothiazol-4-yl)acetamido]-3-(2-methylthio-1,3,4-thiadiazol-5-yl)thiomethyl-3-cephem-4-carboxylic acid sodium salt] | – | – | – | – | – | – | – | – | – | – | – | – | – | – | – | MIC (Proteus rettgeri NIH-96; NIH96, read-out: minimum inhibition concentration, strain I: Proteus rettgeri NIH-96): < 0.00625 µg/mL; MIC (Proteus vulgaris OX-19; OX19, read-out: minimum inhibition concentration, strain H: Proteus vulgaris OX-19): 0.025 µg/mL; MIC ([1]; ATCC6633, read-out: minimum inhibition concentration, strain B: Bacillus subtilis ATCC 6633): 3.12 µg/mL; MIC [2]: 3.12 µg/mL; MIC [3]: 0.39 µg/mL; MIC (Escherichia coli NIHJC-2; NIHJC2, read-out: minimum inhibition concentration): 1.56 µg/mL; MIC (Escherichia coli NIHJ): < 0.00625 µg/mL; MIC (Klebsiella pneumoniae; read-out: minimum inhibition concentration, strain C: Klebsiella pneumoniae): 3.12 µg/mL; MIC ([4]; read-out: minimum inhibition concentration, strain G: Proteus mirabillis B-30-2 IFO-3849): 1.56 µg/mL; MIC (Proteus morgani Kono): 0.78 µg/mL; MIC ([5]; NCTC10490, read-out: minimum inhibition concentration): 6.25 µg/mL; MIC ([6]; read-out: minimum inhibition concentration, strain D: Salmonella typhimurium 3173): 3.12 µg/mL; MIC (Serratia marcescens 1023; Serratia marcescens, 1023, read-out: minimum inhibition concentration, strain E: Serratia marcescens 1023): 3.12 µg/mL; MIC ([7]; IFO3736, read-out: minimum inhibition concentration): 3.12 µg/mL; MIC ([8]; Staphylococcus aureus, 6538P, read-out: minimum inhibition concentration, strain A: Staphylococcus aureus 6538-P): 0.2 µg/mL
11 | CC(=O)OCC1=C(C(=O)O)N2C(=O)C(NC(=O)C(=C(Cl)Cl)c3ccc(Cl)s3)[C@H]2SC1 (stereo partly drawn) [Compound 31, 7-[2-dichloromethylene-2-(5-chloro-2-thienyl)acetamido]-3-acetoxymethyl-3-cephem-4-carboxylic acid] | 1.56 (≈ 3.05 µM) | 100 (≈ 195 µM) | 6.25 (≈ 12.2 µM) | > 100 | > 100 | > 100 | 25 (≈ 48.8 µM) | > 100 | > 100 | > 100 | 100 (≈ 195 µM) | > 100 | 100 (≈ 195 µM) | > 100 | 0.2 (≈ 0.391 µM) | –
